Data from publication PMC10202051, “Molecular basis of differential HLA class I-restricted T cell recognition of a highly networked HIV peptide” (Nature Communications, 2023).

System: autologous B cells lysed by CTL Clone 3
Assay: Chromium release assay with QW9-B53 specific CTL clone C3
Type: cell-based, human
Settings: effector/target 1:1, technical replicate

With QATQEVKNW [QW9_S3T] as the sequence, how does the “lysis of autologous B cells” value (experiment-1) read?
Its value is 6.79.

What about the “lysis of autologous B cells” value (experiment-2) of the same sequence?
Its value is 6.64.

What about the “lysis of autologous B cells” value (experiment-3) of the same sequence?
Its value is 6.63.

And the “lysis of autologous B cells” value (experiment-4)?
Its value is 6.38.

And the “lysis of autologous B cells” value (experiment-5)?
The value was 6.72.

And the “lysis of autologous B cells” value (experiment-6)?
Its value is 7.02.

And the “lysis of autologous B cells” value (experiment-7)?
The value was 6.68.

What about the “lysis of autologous B cells” value (experiment-8) of the same sequence?
The value was 6.3.
